# Measurements from ChEMBL document CHEMBL4190283, “Pharmacological characterization and binding modes of novel racemic and optically active phenylalanine-based antagonists of AMPA receptors” (Eur J Med Chem, 2017).
# The source made the active and inactive calls. The calls are words filed in the database; no cut-off is given here.
# How the values were obtained:
# Glutamate receptor 2 [1] = target: T1, Glutamate receptor 2 (Rattus norvegicus, UniProt P19491); experiment: Displacement of [3H]AMPA from rat GluA2(R) receptor flip isoform expressed in sf9 insect cell membranes by TopCount method
# Glutamate receptor 3 = Glutamate receptor 3 (Rattus norvegicus, UniProt P19492); experiment: Displacement of [3H]AMPA from rat GluA3 receptor flip isoform expressed in sf9 insect cell membranes by TopCount method
# [2] = target: Glutamate receptor 2 (Rattus norvegicus) (UniProt P19491); experiment: Antagonist activity at rat GluA2(Q) receptor flop isoform expressed in Xenopus laevis oocytes assessed as inhibition of (S)-glutamate-induced channel activation by two electrode voltage clamp method; type: cell-based
# Glutamate receptor 2 [3] = target: T1, Glutamate receptor 2; experiment: Displacement of [3H]AMPA from rat GluA2(Q) receptor flop isoform by TopCount method
# [4] = target: Glutamate receptor 2 (Rattus norvegicus) (UniProt P19491); experiment: Agonist activity at rat GluA2(Q) receptor flop isoform expressed in Xenopus laevis oocytes at 300 uM by two electrode voltage clamp method; type: cell-based
# Rattus norvegicus = species: Rattus norvegicus; experiment: Selectivity ratio of Ki for rat GluA3 receptor flip isoform expressed in sf9 insect cell membranes to Ki for rat GluA2(R) receptor flip isoform expressed in sf9 insect cell membranes
# [5] = Displacement of [3H]AMPA from AMPA receptor in rat brain membranes; type: cell membranes, Membrane
# [6] = Displacement of [3H]KA from KA receptor in rat brain membranes by scintillation counting method; type: cell membranes, Membrane
# [7] = Displacement of [3H]AMPA from AMPA receptor in rat brain membranes by scintillation counting method; type: cell membranes, Membrane
# Glutamate NMDA receptor = experiment: Displacement of [3H]CGP39653 from NMDA receptor in rat brain membranes by scintillation counting method; type: cell membranes, Membrane
# Glutamate receptor 3, sequence (P19492 whole entry, canonical isoform): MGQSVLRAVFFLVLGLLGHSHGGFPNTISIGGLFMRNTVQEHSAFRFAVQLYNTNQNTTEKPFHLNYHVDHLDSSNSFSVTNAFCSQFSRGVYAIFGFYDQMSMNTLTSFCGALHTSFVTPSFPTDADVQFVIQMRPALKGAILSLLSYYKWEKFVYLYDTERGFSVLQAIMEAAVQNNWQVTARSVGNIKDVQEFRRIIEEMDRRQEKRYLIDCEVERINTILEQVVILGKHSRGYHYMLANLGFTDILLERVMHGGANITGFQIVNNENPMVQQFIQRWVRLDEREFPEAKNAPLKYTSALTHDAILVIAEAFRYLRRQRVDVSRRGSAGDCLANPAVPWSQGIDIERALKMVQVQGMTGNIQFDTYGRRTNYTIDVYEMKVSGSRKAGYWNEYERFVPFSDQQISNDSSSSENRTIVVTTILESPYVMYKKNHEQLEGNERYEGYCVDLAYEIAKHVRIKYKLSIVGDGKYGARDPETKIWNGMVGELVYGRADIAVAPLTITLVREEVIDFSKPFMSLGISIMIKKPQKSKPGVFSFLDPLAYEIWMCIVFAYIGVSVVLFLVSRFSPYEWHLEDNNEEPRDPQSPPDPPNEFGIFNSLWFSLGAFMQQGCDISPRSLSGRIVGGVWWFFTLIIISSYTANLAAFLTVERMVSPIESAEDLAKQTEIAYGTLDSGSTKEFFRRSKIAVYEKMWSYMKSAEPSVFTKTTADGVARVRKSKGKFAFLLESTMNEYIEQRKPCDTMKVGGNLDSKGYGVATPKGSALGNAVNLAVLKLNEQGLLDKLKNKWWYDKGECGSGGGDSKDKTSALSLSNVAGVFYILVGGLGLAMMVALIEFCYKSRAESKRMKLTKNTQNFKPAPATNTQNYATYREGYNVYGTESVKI
# Glutamate receptor 2 (Rattus norvegicus), sequence (P19491 whole entry, canonical isoform): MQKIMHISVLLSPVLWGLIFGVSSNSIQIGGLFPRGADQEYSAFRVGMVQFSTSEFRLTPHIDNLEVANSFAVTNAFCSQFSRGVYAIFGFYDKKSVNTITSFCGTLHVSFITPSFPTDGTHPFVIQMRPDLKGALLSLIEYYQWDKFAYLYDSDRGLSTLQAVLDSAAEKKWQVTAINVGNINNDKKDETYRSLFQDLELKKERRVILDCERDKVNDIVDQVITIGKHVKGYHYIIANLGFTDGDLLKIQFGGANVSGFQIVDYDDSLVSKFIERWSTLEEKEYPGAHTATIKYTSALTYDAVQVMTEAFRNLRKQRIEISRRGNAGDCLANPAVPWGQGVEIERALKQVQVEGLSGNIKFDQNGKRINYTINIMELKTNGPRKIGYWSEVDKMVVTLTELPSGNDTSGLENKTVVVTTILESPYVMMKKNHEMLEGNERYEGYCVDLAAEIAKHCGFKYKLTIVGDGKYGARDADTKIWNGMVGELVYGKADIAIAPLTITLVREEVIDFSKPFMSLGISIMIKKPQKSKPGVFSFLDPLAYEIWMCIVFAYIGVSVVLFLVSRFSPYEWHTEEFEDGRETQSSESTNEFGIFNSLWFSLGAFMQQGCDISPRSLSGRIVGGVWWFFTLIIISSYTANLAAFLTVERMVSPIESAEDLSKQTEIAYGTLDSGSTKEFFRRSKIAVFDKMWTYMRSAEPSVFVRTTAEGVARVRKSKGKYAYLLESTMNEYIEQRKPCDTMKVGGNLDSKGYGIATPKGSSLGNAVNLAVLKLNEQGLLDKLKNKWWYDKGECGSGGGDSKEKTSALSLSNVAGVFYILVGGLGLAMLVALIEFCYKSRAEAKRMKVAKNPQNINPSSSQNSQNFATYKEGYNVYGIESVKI
# T1 sequence (P19491 whole entry, canonical isoform): as above
SMILES,Ki [6],Ki [7],pKi [7],Ki (Glutamate NMDA receptor),also measured
N[C@@H](Cc1cc(-c2cc(O)ccc2O)c(Cl)c([N+](=O)[O-])c1)C(=O)O,,,,,Ki (Glutamate receptor 2 [1]): 18.4 µM; Ki (Glutamate receptor 3): > 100 µM
N[C@H](Cc1cc(-c2cc(O)ccc2O)c(Cl)c([N+](=O)[O-])c1)C(=O)O,,,,,Ki (Glutamate receptor 2 [1]): 1.71 µM; Ki (Glutamate receptor 3): 7.01 µM; Kb [2]: 2.13 µM; inhibition [2]: Dose-dependent effect; Ki (Glutamate receptor 2 [3]): 1.74 µM; Activity [4]: inactive; Ratio Ki (Rattus norvegicus): 4
N[C@@H](Cc1cc(Cl)cc(-c2cccc(O)c2)c1)C(=O)O,,,,,Ki (Glutamate receptor 2 [1]): 40.8 µM; Ki (Glutamate receptor 3): > 100 µM
N[C@H](Cc1cc(Cl)cc(-c2cccc(O)c2)c1)C(=O)O,,,,,Ki (Glutamate receptor 2 [1]): 20.7 µM; Ki (Glutamate receptor 3): > 100 µM
N[C@@H](Cc1ccc(Cl)c(-c2cccc(O)c2)c1)C(=O)O,,,,,Ki (Glutamate receptor 2 [1]): > 100 µM; Ki (Glutamate receptor 3): > 100 µM
N[C@H](Cc1ccc(Cl)c(-c2cccc(O)c2)c1)C(=O)O,,,,,Ki (Glutamate receptor 2 [1]): 21.9 µM; Ki (Glutamate receptor 3): > 100 µM
NC(Cc1cc(-c2cccc(O)c2)cc([N+](=O)[O-])c1)C(=O)O (racemic),> 100 µM,8.2 µM,5.09,> 100 µM,
NC(Cc1ccc(Cl)c(-c2ccc(O)cc2)c1)C(=O)O (racemic),> 100 µM,65 µM,4.19,> 100 µM,
NC(Cc1ccc(Cl)c(-c2cccc(O)c2)c1)C(=O)O (racemic),> 100 µM,9.2 µM,5.04,> 100 µM,
NC(Cc1cc(Cl)c(O)c(-c2cccc(O)c2)c1)C(=O)O (racemic),> 100 µM,7.9 µM,5.1,> 100 µM,
NC(Cc1cc(-c2ccc(O)cc2)cc([N+](=O)[O-])c1)C(=O)O (racemic),> 100 µM,21 µM,4.68,> 100 µM,
Nc1ccc(CC(N)C(=O)O)cc1-c1cccc(O)c1 (racemic),> 100 µM,9.1 µM,5.05,> 100 µM,
NC(Cc1cc(-c2cccc(O)c2)c(Cl)c([N+](=O)[O-])c1)C(=O)O (racemic),> 100 µM,3.1 µM,5.52,> 100 µM,
NC(Cc1cc(Cl)c(Cl)c(-c2cccc(O)c2)c1)C(=O)O (racemic),> 100 µM,,,,

# The next lines start with results.
Ki [6],Ki [7],pKi [7],Ki (Glutamate NMDA receptor),SMILES,also measured
> 100 µM,,,,CC(C)(C)c1onc(OCP(=O)(O)O)c1C[C@H](N)C(=O)O,Ki [5]: 16 µM
> 100 µM,,,,NC(Cc1cc(Cl)c(Cl)c(-c2cncc(O)c2)c1)C(=O)O (racemic),
> 100 µM,,,,NC(Cc1cccc(-c2cccc(O)c2)c1)C(=O)O (racemic),
> 100 µM,2 µM,5.7,> 100 µM,NC(Cc1cc(-c2cncc(O)c2)c(Cl)c([N+](=O)[O-])c1)C(=O)O (racemic),
15 µM,0.92 µM,6.04,> 100 µM,NC(Cc1cc(-c2cc(O)ccc2O)c(Cl)c([N+](=O)[O-])c1)C(=O)O (racemic),pKi [6]: 4.83
> 100 µM,64 µM,4.2,> 100 µM,NC(Cc1ccc([N+](=O)[O-])c(-c2ccc(O)cc2)c1)C(=O)O (racemic),
> 100 µM,23 µM,4.66,> 100 µM,NC(Cc1cc(-c2ccc(O)cc2)c(Cl)c([N+](=O)[O-])c1)C(=O)O (racemic),
> 100 µM,10 µM,4.99,> 100 µM,Nc1c(Cl)cc(CC(N)C(=O)O)cc1-c1cccc(O)c1 (racemic),
> 100 µM,21 µM,4.67,> 100 µM,NC(Cc1ccc([N+](=O)[O-])c(-c2cccc(O)c2)c1)C(=O)O (racemic),
> 100 µM,14 µM,4.84,> 100 µM,Nc1c(-c2cccc(O)c2)cc(CC(N)C(=O)O)cc1[N+](=O)[O-] (racemic),
> 100 µM,46 µM,4.34,> 100 µM,NC(Cc1cc(Cl)cc(-c2ccc(O)cc2)c1)C(=O)O (racemic),
> 100 µM,9.3 µM,5.06,> 100 µM,NC(Cc1cc(Cl)cc(-c2cccc(O)c2)c1)C(=O)O (racemic),
> 100 µM,> 100 µM,,> 100 µM,COc1c(Cl)cc(CC(N)C(=O)O)cc1-c1cccc(O)c1 (racemic),
26 µM,3.4 µM,5.47,> 100 µM,NC(Cc1cc(-c2cc(O)cc(F)c2)c(Cl)c([N+](=O)[O-])c1)C(=O)O (racemic),pKi [6]: 4.58
